Assay results taken from DBAASP.
≈ marks a conversion by molar mass, not a printed value.

Legend:
Assay in all cases: ≥ marks a high value that may be exact or a test limit, other limits are often not marked, values filed in µg/mL are converted to µM
[1] = test system: Candida albicans NCYC 1467
[2] = test system: Enterococcus faecalis NCTC 12697
[3] = test system: Escherichia coli NCTC 10418
[4] = test system: Klebsiella pneumoniae ATCC 43816
[5] = test system: Pseudomonas aeruginosa ATCC 27853
[6] = test system: Staphylococcus aureus NCTC 10788
[7] = test system: Staphylococcus aureus NCTC 12493
[8] = test system: Staphylococcus aureus USA 100
Bacillus subtilis 168 = test system: Bacillus subtilis 168
[9] = test system: Candida albicans F7-39/IDE99
Escherichia coli B = test system: Escherichia coli B
Pseudomonas aeruginosa = test system: Pseudomonas aeruginosa
Staphylococcus aureus = test system: Staphylococcus aureus
[10] = test system: Candida albicans ATCC 90028
[11] = test system: Pseudomonas aeruginosa ATCC 9027
[12] = test system: Staphylococcus aureus USA 300
[13] = test system: Cronobacter muytjensii ATCC 51329
[14] = test system: Cronobacter sakazakii ATCC BAA-894
[15] = test system: Cronobacter sakazakii DPC 6440
[16] = test system: Cronobacter sakazakii DSM 4485
[17] = test system: Escherichia coli NCIMB 11843
[18] = test system: Klebsiella pneumoniae NCIMB 13218
[19] = test system: Pseudomonas fluorescens NCIMB 9046
[20] = test system: Salmonella enterica subsp. enterica serovar Typhimurium LT2
[21] = test system: Staphylococcus aureus NCTC 8325-4
[22] = test system: Staphylococcus aureus Newman
[23] = test system: Staphylococcus aureus RF122
[24] = test system: Staphylococcus aureus RN4220
[25] = test system: Staphylococcus aureus SA113

SMILES | MIC [1] [µM] | MIC [2] [µM] | MIC [3] [µM] | MIC [4] [µM] | MIC [5] [µM] | MIC [6] [µM] | MIC [7] [µM] | MIC [8] [µM] | further results
NCCCC[C@H](NC(=O)[C@H](CCCN=C(N)N)NC(=O)[C@@H](N)CCCCN)C(=O)N[C@@H](CCCN=C(N)N)C(N)=O [KRKR] |  |  |  |  |  |  |  | ≥ 100 | 
CSCC[C@H](NC(=O)[C@H](C)NC(=O)[C@H](CC(C)C)NC(=O)[C@H](CCCCN)NC(=O)[C@H](CC(C)C)NC(=O)[C@H](CC(C)C)NC(=O)[C@H](CCCCN)NC(=O)[C@H](CCCCN)NC(=O)[C@@H](NC(=O)[C@@H](N)CC(C)C)C(C)C)C(=O)NCC(=O)N[C@@H](Cc1ccccc1)C(=O)NCC(N)=O [LVKKLLKLAMGFG] |  |  |  |  |  |  |  |  | MIC (Bacillus subtilis 168): 3.7 µM (≈ 5.24 µg/mL); MIC [9]: 25 µM (≈ 35.4 µg/mL); MIC (Escherichia coli B): 14.7 µM (≈ 20.8 µg/mL); MIC (Pseudomonas aeruginosa): > 100 µM; MIC (Staphylococcus aureus): 90 µM (≈ 128 µg/mL)
NC(=O)[C@H](Cc1c[nH]c2ccccc12)NC(=O)[C@H](Cc1c[nH]c2ccccc12)NC(=O)[C@H](Cc1c[nH]c2ccccc12)NC(=O)[C@H](CCCN=C(N)N)NC(=O)[C@H](CCCN=C(N)N)NC(=O)[C@@H](N)CCCN=C(N)N [RRRWWW] |  |  |  |  |  |  |  | 25 (≈ 26.1 µg/mL) | MIC [10]: ≥ 100 µM; MIC [11]: 50 µM (≈ 52.2 µg/mL); MIC [12]: 25 µM (≈ 26.1 µg/mL)
CSCC[C@H](NC(=O)[C@H](CC(=O)O)NC(=O)[C@@H](NC(=O)[C@@H](NC(=O)[C@H](CCCCN)NC(=O)[C@H](CC(N)=O)NC(=O)[C@H](CC(C)C)NC(=O)[C@@H](NC(=O)[C@H](C)NC(=O)[C@H](CCCCN)NC(=O)CNC(=O)[C@H](C)NC(=O)[C@H](C)NC(=O)[C@H](CCCCN)NC(=O)CNC(=O)[C@@H](NC(=O)[C@H](CC(N)=O)NC(=O)[C@H](CCCCN)NC(=O)[C@H](CC(C)C)NC(=O)[C@H](CC(C)C)NC(=O)[C@H](CC(=O)O)NC(=O)[C@H](CCCCN)NC(=O)[C@H](Cc1c[nH]c2ccccc12)NC(=O)[C@H](CC(C)C)NC(=O)[C@H](C)N)C(C)C)C(C)C)C(C)C)[C@@H](C)O)C(=O)N[C@H](C(=O)N[C@@H](CC(N)=O)C(=O)N[C@@H](CCC(N)=O)C(N)=O)C(C)C [ALWKDLLKNVGKAAGKAVLNKVTDMVNQ] | 4 (≈ 12.1 µg/mL) | ≥ 128 | 4 (≈ 12.1 µg/mL) | 8 (≈ 24.2 µg/mL) | 8 (≈ 24.2 µg/mL) | 4 (≈ 12.1 µg/mL) | 8 (≈ 24.2 µg/mL) |  | 
CC(C)C[C@H](NC(=O)[C@H](CC(C)C)NC(=O)[C@H](CC(N)=O)NC(=O)[C@H](C)NC(=O)[C@H](CC(N)=O)NC(=O)[C@H](CC(C)C)NC(=O)[C@@H](N)C(C)C)C(=O)N[C@@H](CCCN=C(N)N)C(=O)O [VLNANLLR] |  |  |  |  | 32 (≈ 29.2 µg/mL) |  |  |  | MIC [13]: ≥ 2500 µM; MIC [14]: ≥ 2500 µM; MIC [15]: ≥ 1250 µM; MIC [16]: ≥ 1250 µM; MIC [17]: ≥ 2500 µM; MIC [18]: ≥ 2500 µM; MIC [19]: ≥ 1250 µM; MIC [20]: ≥ 2500 µM; MIC [21]: ≥ 1250 µM; MIC [22]: ≥ 1250 µM; MIC [23]: ≥ 1250 µM; MIC [24]: ≥ 1250 µM; MIC [25]: ≥ 1250 µM
NC(=O)[C@H](CCCN=C(N)N)NC(=O)[C@H](Cc1cnc[nH]1)NC(=O)[C@H](CCCN=C(N)N)NC(=O)[C@@H](N)Cc1cnc[nH]1 [HRHR] |  |  |  |  |  |  |  | ≥ 100 | 
NCCCC[C@H](NC(=O)[C@H](Cc1c[nH]c2ccccc12)NC(=O)[C@H](CCCCN)NC(=O)[C@H](Cc1c[nH]c2ccccc12)NC(=O)[C@H](Cc1c[nH]c2ccccc12)NC(=O)[C@H](CCCCN)NC(=O)[C@H](Cc1c[nH]c2ccccc12)NC(=O)[C@@H](N)CCCCN)C(N)=O [KWKWWKWK] |  |  |  |  |  |  |  | 12.5 (≈ 15.9 µg/mL) | MIC [10]: ≥ 100 µM; MIC [11]: 50 µM (≈ 63.7 µg/mL); MIC [12]: 6.25 µM (≈ 7.97 µg/mL)
CC(C)C[C@H](NC(=O)[C@H](CC(C)C)NC(=O)[C@H](CC(N)=O)NC(=O)[C@H](CCC(=O)O)NC(=O)[C@H](CC(N)=O)NC(=O)[C@H](CC(C)C)NC(=O)[C@@H](N)C(C)C)C(=O)N[C@@H](Cc1cnc[nH]1)C(=O)O [VLNENLLH] |  |  |  |  | 32 (≈ 30.4 µg/mL) |  |  |  | MIC [13]: ≥ 1250 µM; MIC [14]: ≥ 1250 µM; MIC [15]: ≥ 1250 µM; MIC [16]: ≥ 1250 µM; MIC [17]: ≥ 2500 µM; MIC [18]: ≥ 1250 µM; MIC [19]: ≥ 1250 µM; MIC [20]: ≥ 2500 µM; MIC [21]: ≥ 1250 µM; MIC [22]: ≥ 1250 µM; MIC [23]: ≥ 1250 µM; MIC [24]: ≥ 1250 µM; MIC [25]: ≥ 1250 µM

The next lines start with results.

MIC [1] [µM] | MIC [2] [µM] | MIC [3] [µM] | MIC [4] [µM] | MIC [5] [µM] | MIC [6] [µM] | MIC [7] [µM] | MIC [8] [µM] | SMILES | further results
4 (≈ 10.5 µg/mL) | 2 (≈ 5.23 µg/mL) | 2 (≈ 5.23 µg/mL) | 2 (≈ 5.23 µg/mL) | 4 (≈ 10.5 µg/mL) | 2 (≈ 5.23 µg/mL) | 2 (≈ 5.23 µg/mL) |  | CC[C@H](C)[C@H](NC(=O)[C@H](CCCCN)NC(=O)[C@H](CO)NC(=O)[C@H](Cc1c[nH]c2ccccc12)NC(=O)[C@H](CC(C)C)NC(=O)CN)C(=O)N[C@@H](CCCCN)C(=O)N[C@@H](CCCCN)C(=O)N[C@@H](C)C(=O)N[C@@H](C)C(=O)N[C@@H](CCCCN)C(=O)N[C@H](C(=O)N[C@@H](C)C(=O)NCC(=O)N[C@@H](CCCCN)C(=O)N[C@@H](C)C(=O)N[C@@H](C)C(=O)N[C@@H](CC(C)C)C(=O)NCC(=O)N[C@@H](Cc1ccccc1)C(=O)N[C@H](C(=O)N[C@@H](CC(N)=O)C(=O)N[C@@H](CCCCN)C(=O)N[C@@H](CCSC)C(=O)N[C@H](C(N)=O)C(C)C)C(C)C)[C@@H](C)O [GLWSKIKKAAKTAGKAALGFVNKMV] | 
≥ 512 | ≥ 512 | ≥ 512 | ≥ 512 | > 512 | ≥ 512 | ≥ 512 |  | CC(C)C[C@H](NC(=O)[C@H](CCC(N)=O)NC(=O)[C@H](CCC(N)=O)NC(=O)[C@H](C)NC(=O)CNC(=O)[C@H](C)NC(=O)[C@H](CCCCN)NC(=O)CNC(=O)[C@@H](NC(=O)[C@H](CCC(N)=O)NC(=O)[C@H](CCCCN)NC(=O)[C@@H]1CCCN1C(=O)[C@H](CC(C)C)NC(=O)[C@H](Cc1ccc(O)cc1)NC(=O)[C@H](CCCCN)NC(=O)[C@H](C)NC(=O)CNC(=O)[C@H](C)NC(=O)[C@H](CCCCN)NC(=O)[C@H](Cc1ccccc1)NC(=O)[C@H](CC(C)C)NC(=O)[C@H](CO)NC(=O)[C@H](CO)NC(=O)[C@H](Cc1ccccc1)NC(=O)CN)C(C)C)C(N)=O [GFSSLFKAGAKYLPKQVGKAGAQQL] | 
≥ 512 | ≥ 512 | ≥ 512 | ≥ 512 | > 512 | ≥ 512 | ≥ 512 |  | CC[C@H](C)[C@@H]1NC(=O)[C@H](C)NC(=O)[C@@H](NC(=O)[C@H](CCCCN)NC(=O)[C@H](C)NC(=O)[C@H](C)NC(=O)[C@H](CC(C)C)NC(=O)CNC(=O)[C@H](C)NC(=O)[C@@H](NC(=O)[C@H](CC(C)C)NC(=O)[C@@H]2CCCN2C(=O)[C@H](CC(C)C)NC(=O)[C@@H](N)Cc2ccccc2)[C@@H](C)CC)CSSC[C@@H](C(=O)O)NC(=O)[C@H](CCCCN)NC(=O)[C@H](CCCCN)NC(=O)[C@H]([C@@H](C)O)NC1=O [FLPLIAGLAAKCAITKKC] | 
2 (≈ 4.91 µg/mL) | 8 (≈ 19.6 µg/mL) | 4 (≈ 9.82 µg/mL) | 8 (≈ 19.6 µg/mL) | 32 (≈ 78.6 µg/mL) | 2 (≈ 4.91 µg/mL) | 4 (≈ 9.82 µg/mL) |  | CC[C@H](C)[C@H](NC(=O)[C@H](C)NC(=O)[C@H](C)NC(=O)[C@@H]1CCCN1C(=O)[C@@H](NC(=O)[C@H](CC(C)C)NC(=O)[C@H](CCCCN)NC(=O)CNC(=O)[C@H](C)NC(=O)[C@@H](NC(=O)[C@H](CCCCN)NC(=O)[C@H](CC(C)C)NC(=O)[C@@H](NC(=O)[C@H](C)NC(=O)CNC(=O)[C@H](CC(C)C)NC(=O)[C@@H](N)Cc1ccccc1)C(C)C)C(C)C)C(C)C)C(=O)N[C@H]1CSSC[C@@H](C(=O)O)NC(=O)[C@H](CCCCN)NC(=O)[C@H](CCCCN)NC(=O)[C@H](CO)NC(=O)[C@H]([C@@H](C)CC)NC(=O)[C@H](CCCCN)NC1=O [FLGAVLKVAGKLVPAAICKISKKC] | 
